Patent US9518240B2, “Process for the treatment of liquefied hydrocarbons using 3-(piperazine-1-YL)propane-1,2-diol compounds” (Dow Global Technologies LLC, priority 2012, dated 2016)

Legend:
[1] = heptane 10 g, toluene 0.1 g (internal standard), amine 2.5 g; mixed at 20° C. for 1 hour, decanted 15 minutes; average of three injections
[2] = pKa by automated Mettler Toledo titration; conditions: water (50 weight % aqueous amine solution)

area counts (averaged GC peak area of tested amine in neat heptane phase) [1]	pKa [2]	Structure (SMILES)
132 area counts	9.5	OCC(O)CN1CCNCC1 (stereo not drawn) [PPD, 3-(piperazine-1-YL)propane-1,2-diol]
13748 area counts		C1CNCCN1 [Piperazine]
